US20100173833A1, “METHODS AND COMPOSITION FOR USE OF CYCLIC ANALOGUES OF HISTATIN” (priority 2007, published 2010)
Values after ≈ are worked out from the molar mass of the structure shown. Bridge positions count the residues as written; N and C are the ends. Peptide text beside a SMILES is read from it.

Tests used:
[1] = tested on: MRSAS. aureus (STRAIN 1); details: clinical MRSA strain 1; 1 hour 37° C. in 10 mM NaCl/50 mM MOPS, pH 7.2, then YPD 24 hours 37° C.
[2] = tested on: Primary human neonatal foreskin epithelial cells; details: 50 μM working (antimicrobial) concentration
Experimental: At 18 and 36 hours following addition of compound, the foreskin epithelial cells were imaged using phase contract microscopy at 20× magnification. […] The experiments was repeated three times.

[3] = tested on: primary human foreskin epithelial cell culture; details: various concentrations, 0, 36 and 72 hours (FIG. 3)
Experimental: To determine range of non-toxic concentrations of DB2121, various concentration s of DB2121, 50 μM ketoconazole or DMSO as a control were separately added to primary human foreskin epithelial cell culture. At 0, 36 and 72 hours after addition, the epithelial cells were titriated off the culture plate and the viable cell number was determined. The experiment was performed in triplicate. At 72 hours, the foreskin epithelial cells exposed to the various compounds were imaged at 20× magnification using phase contrast microscopy. For cell counting, the epithelial cells were stained with trypan exclusion stain to monitor cell viability.

[4] = tested on: Candida albicans (isolate #77); details: clinical isolate #77; 1 hour 37° C. in 10 mM NaCl/50 mM MOPS, pH 7.2, then YPD 24 hours 30° C.
[5] = tested on: Candida tropicalis (isolate #93); details: clinical isolate #93; 1 hour 37° C. in 10 mM NaCl/50 mM MOPS, pH 7.2, then YPD 24 hours 30° C.
[6] = tested on: phosphorylated ERK 1, 2; details: 50 μM, primary human foreskin epithelial cells
Experimental: Toxicological studies of DB2121 in human cells were also undertaken. Primary human neonatal foreskin epithelial cells were used to examine DB2121 toxicity, using a method as described in Min et al. 2004. […] At 18 and 36 hours following addition of compound, the foreskin epithelial cells were imaged using phase contract microscopy at 20× magnification. (E) Immediately following the image analysis, proteins were extracted, separated on SDS-PAGE gels, Western blotted, and probed for Phosphorylated and non-phosphorylated ERK 1, 2 to monitor the proliferation of the foreskin keratinocytes. The experiments was repeated three times.
The primary cells were lysed and monitored for a marker of proliferation namely phosphorylated ERK 1, 2.

[7] = tested on: Candida albicans (isolate #28); details: clinical isolate #28; 1 hour 37° C. in 10 mM NaCl/50 mM MOPS, pH 7.2, then YPD 24 hours 30° C.
[8] = tested on: MRSAS. aureus (STRAIN 2); details: clinical MRSA strain 2; 1 hour 37° C. in 10 mM NaCl/50 mM MOPS, pH 7.2, then YPD 24 hours 37° C.
[9] = tested on: S. haemolyticus (ATCC 29970); details: lab strain ATCC 29970; 1 hour 37° C. in 10 mM NaCl/50 mM MOPS, pH 7.2, then YPD 24 hours 37° C.
[10] = tested on: Candida albicans (isolate #AST97); details: clinical isolate AST97 (blood culture); 1 hour 37° C. in 10 mM NaCl/50 mM MOPS, pH 7.2, then YPD 24 hours 30° C.
[11] = tested on: Bacillus subtilis; test: MIC, inhibition of cell growth; type: cell-based; details: lab strain; 1 hour 37° C. in 10 mM NaCl/50 mM MOPS, pH 7.2, then YPD 24 hours 37° C.
[12] = tested on: Candida dubliniensis (isolate #10); details: clinical isolate #10; 1 hour 37° C. in 10 mM NaCl/50 mM MOPS, pH 7.2, then YPD 24 hours 30° C.
[13] = tested on: Candida albicans (isolate #5); details: clinical isolate #5; 1 hour 37° C. in 10 mM NaCl/50 mM MOPS, pH 7.2, then YPD 24 hours 30° C.
[14] = tested on: Candida albicans (isolate #3); details: clinical isolate #3; 1 hour 37° C. in 10 mM NaCl/50 mM MOPS, pH 7.2, then YPD 24 hours 30° C.
[15] = tested on: S. aurens (ATCC 43300); details: lab strain ATCC 43300; 1 hour 37° C. in 10 mM NaCl/50 mM MOPS, pH 7.2, then YPD 24 hours 37° C.
[16] = tested on: Candida albicans (isolate #4); details: clinical isolate #4; 1 hour 37° C. in 10 mM NaCl/50 mM MOPS, pH 7.2, then YPD 24 hours 30° C.
[17] = tested on: Candida albicans (isolate #11); details: clinical isolate #11; 1 hour 37° C. in 10 mM NaCl/50 mM MOPS, pH 7.2, then YPD 24 hours 30° C.
[18] = tested on: Candida albicans (SC5314); details: lab strain; 1 hour 37° C. in 10 mM NaCl/50 mM MOPS, pH 7.2, then YPD broth 24 hours 30° C.
[19] = 1 uM, 37° C., in vitro
Experimental: The cyclic analogue was incubated in human saliva at a concentration of 1 uM and at a temperature of 37° C. in vitro. At various time points from 0 to 72 hours, 1.0 ul aliquots were taken and injected directly into a Micromass Quattro Micro mass spectrometer. Data was collected for a total of 3 minutes. The data was then processed using Mass Lynx 4.0 Analysis software.

[20] = tested on: mice; test: Tolerability in mice, intra-peritoneal injection; type: in vivo
Experimental: (§1) In addition, mice were able to withstand a concentration of 15 mg/kg of DB2121 when injected via an intra-peritoneal route. When injected into adult rats, a concentration of up to and including 1.5 mg/kg caused no harm when injected intra-venously.

[21] = tested on: S. aurens (ATCC 25923); details: lab strain ATCC 25923; 1 hour 37° C. in 10 mM NaCl/50 mM MOPS, pH 7.2, then YPD 24 hours 37° C.
[22] = tested on: Candida albicans; details: concentration of cyclic Histatin analogue, alone or in combination; 1 hour 37° C. in 20 mM Tris-Cl, pH 7.2, 20 mM NaCl, then YPD 24 hours
[23] = tested on: S. aureus (ATCC 29213); details: lab strain ATCC 29213; 1 hour 37° C. in 10 mM NaCl/50 mM MOPS, pH 7.2, then YPD 24 hours 37° C.
[24] = tested on: Candida albicans (isolate #98); details: clinical isolate #98; 1 hour 37° C. in 10 mM NaCl/50 mM MOPS, pH 7.2, then YPD 24 hours 30° C.
[25] = tested on: Candida albicans (isolate #99); details: clinical isolate #99; 1 hour 37° C. in 10 mM NaCl/50 mM MOPS, pH 7.2, then YPD 24 hours 30° C.
[26] = tested on: adult rats; test: Tolerability in adult rats, intra-venous injection; type: in vivo
Experimental: as §1

For N=C(N)NCCC[C@H](NC(=O)[C@H](Cc1c[nH]cn1)NC(=O)[C@@H]1CSSC[C@H](NC(=O)[C@H](Cc2c[nH]cn2)NC(=O)[C@H](Cc2c[nH]cn2)NC(=O)[C@@H](N)CCCNC(=N)N)C(=O)N[C@@H](Cc2ccc(O)cc2)C(=O)N[C@@H](CCCCN)C(=O)N[C@@H](CCCNC(=N)N)C(=O)N[C@@H](CCCCN)C(=O)N[C@@H](Cc2ccccc2)C(=O)N[C@@H](Cc2c[nH]cn2)C(=O)N[C@@H](CCC(=O)O)C(=O)N[C@@H](CCCCN)C(=O)N[C@@H](Cc2c[nH]cn2)C(=O)N[C@@H](Cc2c[nH]cn2)C(=O)N1)C(=O)NCC(=O)N[C@@H](Cc1ccc(O)cc1)C(=O)O [DB2121] (H-RHHCYKRKFHEKHHCHRGY-OH; disulfide 4-15), the MIC [1] was 11.5 µM (≈ 29.4 µg/mL), the “toxicity to human primary cells” value [2] was “non-toxic” and the “toxicity in primary cultured cells (viable cell number)” value [3] was “minimal toxicity”. The MIC [4] was 4.5 µM (≈ 11.5 µg/mL), the MIC [5] was 4.5 µM (≈ 11.5 µg/mL) and the “ERK 1, 2 activation compared to control” value [6] was “not suppressed”. It also gave an MIC [7] of 4.5 µM (≈ 11.5 µg/mL), an MIC [8] of 11.5 µM (≈ 29.4 µg/mL) and an MIC [9] of 4.5 µM (≈ 11.5 µg/mL). For the same molecule, the MIC [10] was 7.8 µM (≈ 20 µg/mL), the MIC [11] was 23.9 µM (≈ 61.1 µg/mL) and the MIC [12] was 4.5 µM (≈ 11.5 µg/mL). For the same molecule, the MIC [13] was 4.5 µM (≈ 11.5 µg/mL), the MIC [14] was 8.0 µM (≈ 20.5 µg/mL) and the MIC [15] was 5.5 µM (≈ 14.1 µg/mL). For the same molecule, the MIC [16] was 4.5 µM (≈ 11.5 µg/mL), the MIC [17] was 6.5 µM (≈ 16.6 µg/mL) and the MIC [18] was 4.5 µM (≈ 11.5 µg/mL). The “stable in human saliva” value [19] was “at least 72 hours”, the concentration withstood [20] was 15 mg/kg and the MIC [21] was 4.5 µM (≈ 11.5 µg/mL). For the same molecule, the “MIC (DB2121)” value [22] was 11 µM, the MIC [23] was 12.5 µM (≈ 32 µg/mL) and the MIC [24] was 4.5 µM (≈ 11.5 µg/mL). The MIC [25] was 4.5 µM (≈ 11.5 µg/mL) and the “concentration that caused no harm” value [26] was ≤ 1.5 mg/kg.
